Experimental data from PubChem BioAssay (NCI).
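Cells were grown in 96-well plates and exposed to each compound for 48 hours at five concentrations; endpoints were interpolated linearly between bracketing concentrations, or set to the highest concentration if not reached. TGI: concentration producing complete growth inhibition.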

Legend:
Assay in all cases: NCI tumour cell line growth inhibition, 48 h
BT-549 breast = system: BT-549 breast
KM12 colon = system: KM12 colon
MCF7 breast = system: MCF7 breast
NCI-H23 lung = system: NCI-H23 lung
OVCAR-4 ovarian = system: OVCAR-4 ovarian
OVCAR-5 ovarian = system: OVCAR-5 ovarian
SK-MEL-2 melanoma = system: SK-MEL-2 melanoma
SN12C renal = system: SN12C renal
SNB-19 CNS = system: SNB-19 CNS
SW-620 colon = system: SW-620 colon
U251 CNS = system: U251 CNS
UACC-62 melanoma = system: UACC-62 melanoma

Structure (SMILES)	TGI (BT-549 breast)	TGI (KM12 colon)	TGI (MCF7 breast)	TGI (NCI-H23 lung)	TGI (OVCAR-4 ovarian)	TGI (OVCAR-5 ovarian)	TGI (SK-MEL-2 melanoma)	TGI (SN12C renal)	TGI (SNB-19 CNS)	TGI (SW-620 colon)	TGI (U251 CNS)	TGI (UACC-62 melanoma)
O=C(O)c1cc(Cl)cc2c1NC1(N2)C(=O)Nc2ccccc21 (stereo not drawn)	> 100 µM	> 100 µM	> 100 µM	> 100 µM	> 100 µM	> 100 µM	> 100 µM	> 100 µM	> 100 µM	> 100 µM	> 100 µM	> 100 µM
COc1cc(/C=C2\Cc3cc(OC)c(OC)cc3C2=O)cc(OC)c1	69.3 µM	> 100 µM	> 100 µM	> 56.9 µM	> 88.7 µM	> 100 µM	> 100 µM	> 100 µM	> 100 µM	> 100 µM	> 100 µM	> 89.4 µM
N#CC1(c2ccccc2)CCN(C2(c3ccccc3)CCCCC2)CC1	> 100 µM	> 100 µM	> 100 µM	> 100 µM	> 100 µM	> 100 µM	> 100 µM	> 100 µM	> 100 µM	> 100 µM	> 100 µM	> 100 µM
O=C1CCC2(O)C3Cc4ccc(Oc5nnnn5-c5ccccc5)c5c4C2(CCN3CC2CC2)C1O5 (stereo not drawn)	> 100 µM	> 100 µM	> 100 µM	> 100 µM	> 100 µM	> 100 µM	53.1 µM	> 100 µM	> 100 µM	> 100 µM	> 100 µM	76 µM
CC(C)(C)c1cc(C(=O)/C=C/c2ccn[nH]2)cc(C(C)(C)C)c1O	17 µM	5.35 µM	4.78 µM	7.38 µM	18 µM	13.6 µM	3.43 µM	3.6 µM	9.91 µM	6.27 µM	3.11 µM	8.37 µM
O=C(/C=C(\O)c1ccccc1)/C(=C/C(=O)c1ccccc1)NN=C(c1ccccc1)c1ccccc1	> 100 µM	> 100 µM	> 100 µM	79.9 µM	> 100 µM	> 100 µM	84.2 µM	> 100 µM	> 100 µM	> 100 µM	> 100 µM	36.7 µM
Cc1ccc(N=C2SC(c3ccc(C)cc3)(c3ccc(C)cc3)c3ccccc32)cc1	> 100 µM	> 100 µM	> 100 µM	> 100 µM	> 100 µM	> 100 µM	> 100 µM	> 100 µM	> 100 µM	> 100 µM	> 100 µM	> 100 µM
C[C@@H]1CC[C@@H](C)[C@](C)(CCc2ccoc2)C/C=C\C=C/1C(=O)O	> 50 µM	> 50 µM	> 50 µM	> 50 µM	> 50 µM	> 50 µM	> 50 µM	> 50 µM	> 50 µM	> 50 µM	> 50 µM	> 50 µM
COc1ccc2c(c1OC)C(=O)O[C@@H]2[C@H]1c2cc3c(cc2CCN1C)OCO3	> 100 µM	> 100 µM	> 100 µM	> 100 µM	> 100 µM	> 100 µM	> 100 µM	> 100 µM	> 100 µM	> 100 µM	> 100 µM	> 100 µM
